According to PMC6874179, “Development of Macrocycle Kinase Inhibitors for ALK2 Using Fibrodysplasia Ossificans Progressiva‐Derived Endothelial Cells” (JBMR Plus, 2019):

Tests used:
Assay type in all cases: biochemical
AKT2 = biological target: T1, AKT2 (Homo sapiens, UniProt P31751); experiment: Proqinase Kinase profiling; conditions: read-out: % inhibition at 100nM
T1 construct: purchased DiscoverX

MAP2K1 = biological target: T2, MAP2K1 (Homo sapiens, UniProt Q02750); experiment: Proqinase Kinase profiling; conditions: read-out: % inhibition at 100nM
T2 construct: purchased DiscoverX

EIF2AK1 = biological target: T3, EIF2AK1 (Homo sapiens, UniProt Q9BQI3); experiment: Proqinase Kinase profiling; conditions: read-out: % inhibition at 100nM
T3 construct: purchased DiscoverX

KIT_D816V = biological target: T4, KIT_D816V (Homo sapiens, UniProt P10721, D816V); experiment: Proqinase Kinase profiling; conditions: read-out: % inhibition at 100nM
T4 construct: purchased DiscoverX

LTK = biological target: T5, LTK (Homo sapiens, UniProt P29376); experiment: Proqinase Kinase profiling; conditions: read-out: % inhibition at 100nM
T5 construct: purchased DiscoverX

IKBKB = biological target: T6, IKBKB (Homo sapiens, UniProt O14920); experiment: Proqinase Kinase profiling; conditions: read-out: % inhibition at 100nM
T6 construct: purchased DiscoverX

CHEK1 = biological target: T7, CHEK1 (Homo sapiens, UniProt O14757); experiment: Proqinase Kinase profiling; conditions: read-out: % inhibition at 100nM
T7 construct: purchased DiscoverX

CLK1 = biological target: T8, CLK1 (Homo sapiens, UniProt P49759); experiment: Proqinase Kinase profiling; conditions: read-out: % inhibition at 100nM
T8 construct: purchased DiscoverX

CSK = biological target: T9, CSK (Homo sapiens, UniProt P41240); experiment: Proqinase Kinase profiling; conditions: read-out: % inhibition at 100nM
T9 construct: purchased DiscoverX

CAMKK2 = biological target: T10, CAMKK2 (Homo sapiens, UniProt Q96RR4); experiment: Proqinase Kinase profiling; conditions: read-out: % inhibition at 100nM
T10 construct: purchased DiscoverX

LRRK2_G2019S = biological target: T11, LRRK2_G2019S (Homo sapiens, UniProt Q5S007, G2019S); experiment: Proqinase Kinase profiling; conditions: read-out: % inhibition at 100nM
T11 construct: purchased DiscoverX

CSNK1D = biological target: T12, CSNK1D (Homo sapiens, UniProt P48730); experiment: Proqinase Kinase profiling; conditions: read-out: % inhibition at 100nM
T12 construct: purchased DiscoverX

PLK3 = biological target: T13, PLK3 (Homo sapiens, UniProt Q9H4B4); experiment: Proqinase Kinase profiling; conditions: read-out: % inhibition at 100nM
T13 construct: purchased DiscoverX

RPS6KA1 = biological target: T14, RPS6KA1 (Homo sapiens, UniProt Q15418); experiment: Proqinase Kinase profiling; conditions: read-out: % inhibition at 100nM
T14 construct: purchased DiscoverX
T14 sequence (Q15418 whole entry): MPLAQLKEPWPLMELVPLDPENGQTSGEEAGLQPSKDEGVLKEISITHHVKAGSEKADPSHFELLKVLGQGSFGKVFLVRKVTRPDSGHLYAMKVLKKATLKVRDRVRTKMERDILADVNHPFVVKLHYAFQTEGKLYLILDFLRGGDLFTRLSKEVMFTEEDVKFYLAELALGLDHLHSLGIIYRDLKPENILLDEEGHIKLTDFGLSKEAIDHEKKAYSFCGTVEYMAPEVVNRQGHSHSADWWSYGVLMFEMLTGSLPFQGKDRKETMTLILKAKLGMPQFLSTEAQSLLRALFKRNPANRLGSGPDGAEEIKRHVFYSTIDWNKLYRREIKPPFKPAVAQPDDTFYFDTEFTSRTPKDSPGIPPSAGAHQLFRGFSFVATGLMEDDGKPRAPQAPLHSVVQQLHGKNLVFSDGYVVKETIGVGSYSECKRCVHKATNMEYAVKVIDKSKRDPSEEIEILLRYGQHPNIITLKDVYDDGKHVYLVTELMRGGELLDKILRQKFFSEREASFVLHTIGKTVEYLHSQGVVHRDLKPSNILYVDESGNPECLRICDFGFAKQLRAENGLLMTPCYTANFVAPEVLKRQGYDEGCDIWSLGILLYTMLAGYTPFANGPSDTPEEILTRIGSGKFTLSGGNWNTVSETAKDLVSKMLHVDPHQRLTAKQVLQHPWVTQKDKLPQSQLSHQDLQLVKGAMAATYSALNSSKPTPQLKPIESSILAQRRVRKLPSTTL

RET_V804M = biological target: T15, RET_V804M (Homo sapiens, UniProt P07949, V804M); experiment: Proqinase Kinase profiling; conditions: read-out: % inhibition at 100nM
T15 construct: purchased DiscoverX

TLK1 = biological target: T16, TLK1 (Homo sapiens, UniProt Q9UKI8); experiment: Proqinase Kinase profiling; conditions: read-out: % inhibition at 100nM
T16 construct: purchased DiscoverX

CAMK2B = biological target: T17, CAMK2B (Homo sapiens, UniProt Q13554); experiment: Proqinase Kinase profiling; conditions: read-out: % inhibition at 100nM
T17 construct: purchased DiscoverX
T17 sequence (Q13554 whole entry): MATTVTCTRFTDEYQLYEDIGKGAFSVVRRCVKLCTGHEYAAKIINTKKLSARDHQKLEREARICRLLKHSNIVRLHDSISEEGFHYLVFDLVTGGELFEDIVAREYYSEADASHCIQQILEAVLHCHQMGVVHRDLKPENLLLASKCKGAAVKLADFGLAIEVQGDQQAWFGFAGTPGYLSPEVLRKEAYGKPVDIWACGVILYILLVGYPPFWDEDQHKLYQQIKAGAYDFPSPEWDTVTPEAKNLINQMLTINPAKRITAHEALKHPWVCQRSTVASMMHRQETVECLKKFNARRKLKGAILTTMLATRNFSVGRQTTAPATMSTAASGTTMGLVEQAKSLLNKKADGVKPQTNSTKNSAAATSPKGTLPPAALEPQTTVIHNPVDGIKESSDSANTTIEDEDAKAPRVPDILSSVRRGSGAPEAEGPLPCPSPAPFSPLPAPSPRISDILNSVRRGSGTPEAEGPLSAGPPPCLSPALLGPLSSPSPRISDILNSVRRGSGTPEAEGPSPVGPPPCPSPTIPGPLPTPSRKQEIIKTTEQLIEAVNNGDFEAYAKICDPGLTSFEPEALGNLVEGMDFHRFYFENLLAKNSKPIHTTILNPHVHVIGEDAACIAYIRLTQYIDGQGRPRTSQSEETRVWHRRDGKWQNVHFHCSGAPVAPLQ

CSNK1G3 = biological target: T18, CSNK1G3 (Homo sapiens, UniProt Q9Y6M4); experiment: Proqinase Kinase profiling; conditions: read-out: % inhibition at 100nM
T18 construct: purchased DiscoverX

IKBKE = biological target: T19, IKBKE (Homo sapiens, UniProt Q14164); experiment: Proqinase Kinase profiling; conditions: read-out: % inhibition at 100nM
T19 construct: purchased DiscoverX

IGF1R = biological target: T20, IGF1R (Homo sapiens, UniProt P08069); experiment: Proqinase Kinase profiling; conditions: read-out: % inhibition at 100nM
T20 construct: purchased DiscoverX

FGFR3_K650M = biological target: T21, FGFR3_K650M (Homo sapiens, UniProt P22607, K650M); experiment: Proqinase Kinase profiling; conditions: read-out: % inhibition at 100nM
T21 construct: purchased DiscoverX

RAF1 = biological target: T22, RAF1 (Homo sapiens, UniProt P04049); experiment: Proqinase Kinase profiling; conditions: read-out: % inhibition at 100nM
T22 construct: purchased DiscoverX

CDK9_cyclinK = biological target: T23, CDK9_cyclinK (Homo sapiens, UniProt P50750); experiment: Proqinase Kinase profiling; conditions: read-out: % inhibition at 100nM
T23 construct: purchased DiscoverX

BTK = biological target: T24, BTK (Homo sapiens, UniProt Q06187); experiment: Proqinase Kinase profiling; conditions: read-out: % inhibition at 100nM
T24 construct: purchased DiscoverX

MAP3K3 = biological target: T25, MAP3K3 (Homo sapiens, UniProt Q99759); experiment: Proqinase Kinase profiling; conditions: read-out: % inhibition at 100nM
T25 construct: purchased DiscoverX

SRMS = biological target: T26, SRMS (Homo sapiens, UniProt Q9H3Y6); experiment: Proqinase Kinase profiling; conditions: read-out: % inhibition at 100nM
T26 construct: purchased DiscoverX

DAPK3 = biological target: T27, DAPK3 (Homo sapiens, UniProt O43293); experiment: Proqinase Kinase profiling; conditions: read-out: % inhibition at 100nM
T27 construct: purchased DiscoverX

JAK1 = biological target: T28, JAK1 (Homo sapiens, UniProt P23458); experiment: Proqinase Kinase profiling; conditions: read-out: % inhibition at 100nM
T28 construct: purchased DiscoverX

PAK3 = biological target: T29, PAK3 (Homo sapiens, UniProt O75914); experiment: Proqinase Kinase profiling; conditions: read-out: % inhibition at 100nM
T29 construct: purchased DiscoverX
T29 sequence (O75914 whole entry): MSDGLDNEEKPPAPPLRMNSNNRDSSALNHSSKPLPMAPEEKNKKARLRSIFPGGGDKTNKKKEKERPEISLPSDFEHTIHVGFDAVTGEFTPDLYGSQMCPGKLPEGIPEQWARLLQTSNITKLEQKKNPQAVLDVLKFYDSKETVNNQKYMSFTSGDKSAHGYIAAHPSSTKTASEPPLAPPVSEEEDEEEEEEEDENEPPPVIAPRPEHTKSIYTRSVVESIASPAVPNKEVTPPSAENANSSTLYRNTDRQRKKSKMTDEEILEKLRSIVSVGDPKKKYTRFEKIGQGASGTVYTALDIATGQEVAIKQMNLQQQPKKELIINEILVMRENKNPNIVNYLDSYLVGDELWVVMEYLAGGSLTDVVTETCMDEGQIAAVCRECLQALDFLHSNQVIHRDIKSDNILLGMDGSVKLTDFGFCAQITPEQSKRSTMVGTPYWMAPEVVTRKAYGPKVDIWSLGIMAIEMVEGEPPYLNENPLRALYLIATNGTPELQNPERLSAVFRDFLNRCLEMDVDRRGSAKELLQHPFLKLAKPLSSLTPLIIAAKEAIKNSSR

ACVR2B = biological target: T30, ACVR2B (Homo sapiens, UniProt Q13705); experiment: Proqinase Kinase profiling; conditions: read-out: % inhibition at 100nM
T30 construct: T7 phage fusion (or DNA tag for qPCR if made in HEK-293); purchased DiscoverX; host or cells: E. coli (T7 phage) or HEK-293
T30 sequence (Q13705 19-512): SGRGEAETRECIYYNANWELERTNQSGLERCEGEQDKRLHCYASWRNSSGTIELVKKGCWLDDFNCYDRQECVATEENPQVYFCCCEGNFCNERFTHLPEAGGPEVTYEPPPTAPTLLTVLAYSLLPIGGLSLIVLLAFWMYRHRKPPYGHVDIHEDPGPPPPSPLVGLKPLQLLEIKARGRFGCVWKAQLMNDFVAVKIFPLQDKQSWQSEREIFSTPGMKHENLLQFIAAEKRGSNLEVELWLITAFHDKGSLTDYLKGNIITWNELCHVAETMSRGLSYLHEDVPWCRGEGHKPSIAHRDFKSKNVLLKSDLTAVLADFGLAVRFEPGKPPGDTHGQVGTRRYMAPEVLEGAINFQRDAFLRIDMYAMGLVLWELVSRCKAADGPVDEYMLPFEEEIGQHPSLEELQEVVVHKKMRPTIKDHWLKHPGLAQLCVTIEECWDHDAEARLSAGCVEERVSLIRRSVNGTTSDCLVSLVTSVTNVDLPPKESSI

CDK3_cyclinE = biological target: T31, CDK3_cyclinE (Homo sapiens, UniProt Q00526); experiment: Proqinase Kinase profiling; conditions: read-out: % inhibition at 100nM
T31 construct: purchased DiscoverX

WNK2 = biological target: T32, WNK2 (Homo sapiens, UniProt Q9Y3S1); experiment: Proqinase Kinase profiling; conditions: read-out: % inhibition at 100nM
T32 construct: purchased DiscoverX

ACVR2A = biological target: T33, ACVR2A (Homo sapiens, UniProt P27037); experiment: Proqinase Kinase profiling; conditions: read-out: % inhibition at 100nM
T33 construct: T7 phage fusion (or DNA tag for qPCR if made in HEK-293); purchased DiscoverX; host or cells: E. coli (T7 phage) or HEK-293

ALK2 wt = ALK2 wt (Homo sapiens, UniProt Q04771); experiment: RBC HotSpot Kinase assay
ALK2 wt, sequence (Q04771 208-502 limits assumed): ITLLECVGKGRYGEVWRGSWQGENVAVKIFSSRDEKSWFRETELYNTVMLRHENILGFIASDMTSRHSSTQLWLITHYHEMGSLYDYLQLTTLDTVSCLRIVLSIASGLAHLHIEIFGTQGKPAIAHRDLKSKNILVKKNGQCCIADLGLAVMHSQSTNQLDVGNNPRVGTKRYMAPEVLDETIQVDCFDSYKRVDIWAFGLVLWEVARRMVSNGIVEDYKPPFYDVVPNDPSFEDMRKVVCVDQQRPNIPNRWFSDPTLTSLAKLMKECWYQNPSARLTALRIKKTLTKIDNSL

LYN = biological target: T34, LYN (Homo sapiens, UniProt P07948); experiment: Proqinase Kinase profiling; conditions: read-out: % inhibition at 100nM
T34 construct: purchased DiscoverX

PRKCA = biological target: T35, PRKCA (Homo sapiens, UniProt P17252); experiment: Proqinase Kinase profiling; conditions: read-out: % inhibition at 100nM
T35 construct: purchased DiscoverX

HIPK1 = biological target: T36, HIPK1 (Homo sapiens, UniProt Q86Z02); experiment: Proqinase Kinase profiling; conditions: read-out: % inhibition at 100nM
T36 construct: purchased DiscoverX

CSNK1G2 = biological target: T37, CSNK1G2 (Homo sapiens, UniProt P78368); experiment: Proqinase Kinase profiling; conditions: read-out: % inhibition at 100nM
T37 construct: purchased DiscoverX
T37 sequence (P78368 whole entry): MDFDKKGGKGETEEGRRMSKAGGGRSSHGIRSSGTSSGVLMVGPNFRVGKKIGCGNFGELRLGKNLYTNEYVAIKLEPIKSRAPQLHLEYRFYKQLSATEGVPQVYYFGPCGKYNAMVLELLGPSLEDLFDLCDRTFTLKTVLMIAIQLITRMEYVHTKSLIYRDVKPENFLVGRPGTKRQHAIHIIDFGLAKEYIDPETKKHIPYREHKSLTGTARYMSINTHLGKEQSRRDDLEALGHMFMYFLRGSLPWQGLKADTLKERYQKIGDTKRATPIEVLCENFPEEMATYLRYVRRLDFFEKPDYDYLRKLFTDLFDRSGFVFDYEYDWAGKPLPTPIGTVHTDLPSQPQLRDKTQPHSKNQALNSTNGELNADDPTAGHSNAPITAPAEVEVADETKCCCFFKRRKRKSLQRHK

MET_D1228N = biological target: T38, MET_D1228N (Homo sapiens, UniProt P08581, D1228N); experiment: Proqinase Kinase profiling; conditions: read-out: % inhibition at 100nM
T38 construct: purchased DiscoverX
T38 sequence (P08581 25-1390 D1228N): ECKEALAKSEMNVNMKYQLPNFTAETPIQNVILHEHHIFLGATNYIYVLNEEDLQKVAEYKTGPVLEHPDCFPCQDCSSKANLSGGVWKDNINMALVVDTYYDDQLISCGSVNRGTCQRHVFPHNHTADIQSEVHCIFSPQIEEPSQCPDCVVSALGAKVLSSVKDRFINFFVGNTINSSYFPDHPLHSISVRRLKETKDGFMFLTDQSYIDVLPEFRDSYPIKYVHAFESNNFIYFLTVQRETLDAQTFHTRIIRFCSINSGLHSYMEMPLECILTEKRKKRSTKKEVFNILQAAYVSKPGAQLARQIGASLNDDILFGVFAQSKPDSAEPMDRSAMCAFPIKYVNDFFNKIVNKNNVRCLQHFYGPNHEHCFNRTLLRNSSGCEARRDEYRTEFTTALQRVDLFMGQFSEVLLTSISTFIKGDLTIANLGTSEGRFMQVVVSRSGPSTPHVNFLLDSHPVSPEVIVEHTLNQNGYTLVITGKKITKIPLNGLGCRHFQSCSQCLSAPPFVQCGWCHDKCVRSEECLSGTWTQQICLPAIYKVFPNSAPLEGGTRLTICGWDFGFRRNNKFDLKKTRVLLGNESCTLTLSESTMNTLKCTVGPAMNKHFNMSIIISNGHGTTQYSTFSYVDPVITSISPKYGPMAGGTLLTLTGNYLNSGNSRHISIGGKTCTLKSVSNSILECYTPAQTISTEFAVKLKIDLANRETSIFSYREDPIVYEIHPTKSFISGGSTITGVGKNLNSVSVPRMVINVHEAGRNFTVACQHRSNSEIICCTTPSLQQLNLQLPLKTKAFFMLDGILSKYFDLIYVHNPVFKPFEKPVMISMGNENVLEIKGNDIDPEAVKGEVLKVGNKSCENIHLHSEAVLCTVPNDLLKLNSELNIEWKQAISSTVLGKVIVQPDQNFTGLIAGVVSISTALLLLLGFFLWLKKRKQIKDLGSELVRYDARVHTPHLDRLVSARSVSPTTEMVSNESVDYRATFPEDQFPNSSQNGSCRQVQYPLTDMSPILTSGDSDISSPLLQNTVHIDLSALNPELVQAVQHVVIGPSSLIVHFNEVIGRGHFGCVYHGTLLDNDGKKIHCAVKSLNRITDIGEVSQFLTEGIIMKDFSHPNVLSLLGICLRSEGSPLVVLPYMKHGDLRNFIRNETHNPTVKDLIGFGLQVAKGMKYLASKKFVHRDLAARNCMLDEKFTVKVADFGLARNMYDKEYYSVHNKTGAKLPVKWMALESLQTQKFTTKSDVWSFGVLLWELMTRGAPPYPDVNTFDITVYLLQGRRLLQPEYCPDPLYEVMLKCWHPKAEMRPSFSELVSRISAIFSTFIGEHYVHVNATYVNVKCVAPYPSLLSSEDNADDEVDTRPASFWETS

PRKCH = biological target: T39, PRKCH (Homo sapiens, UniProt P24723); experiment: Proqinase Kinase profiling; conditions: read-out: % inhibition at 100nM
T39 construct: purchased DiscoverX

CHUK = biological target: T40, CHUK (Homo sapiens, UniProt O15111); experiment: Proqinase Kinase profiling; conditions: read-out: % inhibition at 100nM
T40 construct: purchased DiscoverX

PHKG2 = biological target: T41, PHKG2 (Homo sapiens, UniProt P15735); experiment: Proqinase Kinase profiling; conditions: read-out: % inhibition at 100nM
T41 construct: purchased DiscoverX
T41 sequence (P15735 whole entry): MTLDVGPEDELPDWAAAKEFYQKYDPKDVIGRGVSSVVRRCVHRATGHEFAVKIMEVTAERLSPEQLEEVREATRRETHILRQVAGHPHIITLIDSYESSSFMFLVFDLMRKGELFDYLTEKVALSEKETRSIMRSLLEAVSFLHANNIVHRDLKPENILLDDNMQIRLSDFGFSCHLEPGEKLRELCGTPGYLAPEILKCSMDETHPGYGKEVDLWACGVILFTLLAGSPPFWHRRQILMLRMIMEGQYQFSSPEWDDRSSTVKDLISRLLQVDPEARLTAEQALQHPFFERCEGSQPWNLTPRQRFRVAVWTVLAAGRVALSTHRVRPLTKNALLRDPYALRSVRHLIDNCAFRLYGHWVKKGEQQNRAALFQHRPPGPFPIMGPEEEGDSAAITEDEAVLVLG

EPHB2 = biological target: T42, EPHB2 (Homo sapiens, UniProt P29323); experiment: Proqinase Kinase profiling; conditions: read-out: % inhibition at 100nM
T42 construct: purchased DiscoverX

SMILES: Clc1cc2cc(c1)-c1cnn3ccc(nc13)NCCOCCO2 [OD36]
- inhibition at 0.1 µM (AKT2): 2%
- inhibition at 0.1 µM (MAP2K1): 6%
- inhibition at 0.1 µM (EIF2AK1): -4%
- inhibition at 0.1 µM (KIT_D816V): 36%
- inhibition at 0.1 µM (LTK): 6%
- inhibition at 0.1 µM (IKBKB): 1%
- inhibition at 0.1 µM (CHEK1): 11%
- inhibition at 0.1 µM (CLK1): 7%
- inhibition at 0.1 µM (CSK): -4%
- inhibition at 0.1 µM (CAMKK2): 3%
- inhibition at 0.1 µM (LRRK2_G2019S): 61%
- inhibition at 0.1 µM (CSNK1D): 10%
- inhibition at 0.1 µM (PLK3): -4%
- inhibition at 0.1 µM (RPS6KA1): 9%
- inhibition at 0.1 µM (RET_V804M): 5%
- inhibition at 0.1 µM (TLK1): 17%
- inhibition at 0.1 µM (CAMK2B): 32%
- inhibition at 0.1 µM (CSNK1G3): 3%
- inhibition at 0.1 µM (IKBKE): 6%
- inhibition at 0.1 µM (IGF1R): 3%
- inhibition at 0.1 µM (FGFR3_K650M): 2%
- inhibition at 0.1 µM (RAF1): 2%
- inhibition at 0.1 µM (CDK9_cyclinK): 16%
- inhibition at 0.1 µM (BTK): 3%
- inhibition at 0.1 µM (MAP3K3): 1%
- inhibition at 0.1 µM (SRMS): 11%
- inhibition at 0.1 µM (DAPK3): 16%
- inhibition at 0.1 µM (JAK1): 18%
- inhibition at 0.1 µM (PAK3): 1%
- inhibition at 0.1 µM (ACVR2B): 90%
- inhibition at 0.1 µM (CDK3_cyclinE): 11%
- inhibition at 0.1 µM (WNK2): 1%
- inhibition at 0.1 µM (ACVR2A): 15%
- IC50 (ALK2 wt): 47 nM
- inhibition at 0.1 µM (LYN): 43%
- inhibition at 0.1 µM (PRKCA): 26%
- inhibition at 0.1 µM (HIPK1): 8%
- inhibition at 0.1 µM (CSNK1G2): -3%
- inhibition at 0.1 µM (MET_D1228N): 4%
- inhibition at 0.1 µM (PRKCH): 5%
- inhibition at 0.1 µM (CHUK): 20%
- inhibition at 0.1 µM (PHKG2): 1%
- inhibition at 0.1 µM (EPHB2): -2%

SMILES: Cc1cc2cc(c1)-c1cnn3ccc(nc13)NCCNC(=O)CCN(C)C2 [OD52]
- inhibition at 0.1 µM (AKT2): -9%
- inhibition at 0.1 µM (MAP2K1): 10%
- inhibition at 0.1 µM (EIF2AK1): 2%
- inhibition at 0.1 µM (KIT_D816V): -5%
- inhibition at 0.1 µM (LTK): -8%
- inhibition at 0.1 µM (IKBKB): -3%
- inhibition at 0.1 µM (CHEK1): -8%
- inhibition at 0.1 µM (CLK1): 6%
- inhibition at 0.1 µM (CSK): -6%
- inhibition at 0.1 µM (CAMKK2): 2%
- inhibition at 0.1 µM (LRRK2_G2019S): 39%
- inhibition at 0.1 µM (CSNK1D): 5%
- inhibition at 0.1 µM (PLK3): -8%
- inhibition at 0.1 µM (RPS6KA1): 10%
- inhibition at 0.1 µM (RET_V804M): -6%
- inhibition at 0.1 µM (TLK1): 16%
- inhibition at 0.1 µM (CAMK2B): 12%
- inhibition at 0.1 µM (CSNK1G3): 2%
- inhibition at 0.1 µM (IKBKE): -21%
- inhibition at 0.1 µM (IGF1R): -25%
- inhibition at 0.1 µM (FGFR3_K650M): -2%
- inhibition at 0.1 µM (RAF1): -1%
- inhibition at 0.1 µM (CDK9_cyclinK): -7%
- inhibition at 0.1 µM (BTK): -2%
- inhibition at 0.1 µM (MAP3K3): 13%
- inhibition at 0.1 µM (SRMS): -9%
- inhibition at 0.1 µM (DAPK3): 11%
- inhibition at 0.1 µM (JAK1): -6%
- inhibition at 0.1 µM (PAK3): -15%
- inhibition at 0.1 µM (ACVR2B): 17%
- inhibition at 0.1 µM (CDK3_cyclinE): 5%
- inhibition at 0.1 µM (WNK2): 17%
- inhibition at 0.1 µM (ACVR2A): 14%
- IC50 (ALK2 wt): 72 nM
- inhibition at 0.1 µM (LYN): -14%
- inhibition at 0.1 µM (PRKCA): 8%
- inhibition at 0.1 µM (HIPK1): 0%
- inhibition at 0.1 µM (CSNK1G2): 4%
- inhibition at 0.1 µM (MET_D1228N): 6%
- inhibition at 0.1 µM (PRKCH): -20%
- inhibition at 0.1 µM (CHUK): 0%
- inhibition at 0.1 µM (PHKG2): -10%
- inhibition at 0.1 µM (EPHB2): 15%
